Measured values: PMC4685510, “A Cell Biologist’s Field Guide to Aurora Kinase Inhibitors” (Frontiers in Oncology, 2015)

Assays:
Experiment in all cases: biochemical
Type in all cases: biochemical
[1] = molecular target: T1, 363 human kinases (including Aurora A/B/C) (Homo sapiens, UniProt O94806); conditions: PKCnu/PRKD3; for remaining activity at 0.1 µM: 100 nM; for remaining activity at 0.1 µM / remaining activity at 0.5 µM: read-out: % Enzyme Activity (relative to DMSO controls)
T1 sequence (O94806 1-890): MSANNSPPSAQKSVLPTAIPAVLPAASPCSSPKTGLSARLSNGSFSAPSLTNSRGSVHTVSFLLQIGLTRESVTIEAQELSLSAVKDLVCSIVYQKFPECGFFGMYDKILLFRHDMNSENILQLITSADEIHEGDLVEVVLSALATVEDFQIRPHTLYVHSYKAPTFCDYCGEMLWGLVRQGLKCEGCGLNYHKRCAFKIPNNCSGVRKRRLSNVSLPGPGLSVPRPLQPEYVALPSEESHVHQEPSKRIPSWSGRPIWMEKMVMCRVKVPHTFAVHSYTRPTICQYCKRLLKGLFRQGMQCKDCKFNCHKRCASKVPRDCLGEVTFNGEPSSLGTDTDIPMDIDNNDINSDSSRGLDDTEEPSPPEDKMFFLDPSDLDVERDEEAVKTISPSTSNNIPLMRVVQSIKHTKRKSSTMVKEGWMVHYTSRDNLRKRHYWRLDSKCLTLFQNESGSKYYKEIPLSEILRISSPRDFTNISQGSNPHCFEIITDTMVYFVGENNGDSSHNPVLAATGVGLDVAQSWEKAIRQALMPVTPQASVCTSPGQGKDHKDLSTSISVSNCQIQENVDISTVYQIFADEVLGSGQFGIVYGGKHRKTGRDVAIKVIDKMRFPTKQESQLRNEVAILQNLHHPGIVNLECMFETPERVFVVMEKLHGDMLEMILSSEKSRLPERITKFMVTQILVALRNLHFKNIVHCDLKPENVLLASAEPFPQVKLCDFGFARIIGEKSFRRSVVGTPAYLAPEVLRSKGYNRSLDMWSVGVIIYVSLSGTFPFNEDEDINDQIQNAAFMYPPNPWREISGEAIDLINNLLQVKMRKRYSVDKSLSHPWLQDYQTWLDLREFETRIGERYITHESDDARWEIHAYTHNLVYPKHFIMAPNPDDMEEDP
Text: (§1) However, the Aurora A/B selectivity ratios derived from our in vitro and in vivo data can be compared to prioritize inhibitors.

[2] = molecular target: 363 human kinases (including Aurora A/B/C) (Homo sapiens, UniProt P41240); conditions: CSK, [ATP] 15 µM; for remaining activity at 0.1 µM: 100 nM; for remaining activity at 0.1 µM / remaining activity at 0.5 µM: read-out: % Enzyme Activity (relative to DMSO controls)
Text: as §1

[3] = molecular target: T2, 363 human kinases (including Aurora A/B/C) (Homo sapiens, UniProt P21709); conditions: EPHA1, [ATP] 20 µM; for remaining activity at 0.1 µM: 100 nM; for remaining activity at 0.1 µM / remaining activity at 0.5 µM: read-out: % Enzyme Activity (relative to DMSO controls)
T2 sequence (P21709 26-976): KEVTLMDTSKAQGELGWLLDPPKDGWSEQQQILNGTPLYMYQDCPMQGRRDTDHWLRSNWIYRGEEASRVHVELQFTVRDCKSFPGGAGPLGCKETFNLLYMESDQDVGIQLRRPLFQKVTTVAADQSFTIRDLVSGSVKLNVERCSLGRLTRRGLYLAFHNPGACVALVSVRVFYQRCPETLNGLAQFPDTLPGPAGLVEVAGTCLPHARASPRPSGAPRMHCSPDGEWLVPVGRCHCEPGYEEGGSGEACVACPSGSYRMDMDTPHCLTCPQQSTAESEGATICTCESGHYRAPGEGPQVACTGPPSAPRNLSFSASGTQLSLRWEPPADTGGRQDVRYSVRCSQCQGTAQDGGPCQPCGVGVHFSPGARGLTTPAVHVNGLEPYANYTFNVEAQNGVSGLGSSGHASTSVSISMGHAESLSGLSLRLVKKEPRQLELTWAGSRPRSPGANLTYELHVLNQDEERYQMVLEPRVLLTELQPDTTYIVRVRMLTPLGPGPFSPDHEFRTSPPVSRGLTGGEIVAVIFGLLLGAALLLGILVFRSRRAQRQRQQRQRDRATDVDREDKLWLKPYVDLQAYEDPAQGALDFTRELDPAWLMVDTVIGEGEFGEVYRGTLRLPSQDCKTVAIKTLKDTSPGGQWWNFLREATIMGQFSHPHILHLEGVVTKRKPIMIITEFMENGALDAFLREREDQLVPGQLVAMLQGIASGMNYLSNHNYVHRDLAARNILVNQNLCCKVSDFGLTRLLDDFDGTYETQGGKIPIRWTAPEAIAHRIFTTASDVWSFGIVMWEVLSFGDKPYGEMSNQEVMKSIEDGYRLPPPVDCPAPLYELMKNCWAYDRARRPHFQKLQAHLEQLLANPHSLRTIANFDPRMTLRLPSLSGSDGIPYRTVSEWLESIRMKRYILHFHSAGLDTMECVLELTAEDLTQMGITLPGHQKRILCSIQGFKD
Text: as §1

[4] = molecular target: T3, 363 human kinases (including Aurora A/B/C) (Homo sapiens, UniProt Q8IYT8); conditions: ULK2; for remaining activity at 0.1 µM: 100 nM; for remaining activity at 0.1 µM / remaining activity at 0.5 µM: read-out: % Enzyme Activity (relative to DMSO controls)
T3 sequence (Q8IYT8 1-1036): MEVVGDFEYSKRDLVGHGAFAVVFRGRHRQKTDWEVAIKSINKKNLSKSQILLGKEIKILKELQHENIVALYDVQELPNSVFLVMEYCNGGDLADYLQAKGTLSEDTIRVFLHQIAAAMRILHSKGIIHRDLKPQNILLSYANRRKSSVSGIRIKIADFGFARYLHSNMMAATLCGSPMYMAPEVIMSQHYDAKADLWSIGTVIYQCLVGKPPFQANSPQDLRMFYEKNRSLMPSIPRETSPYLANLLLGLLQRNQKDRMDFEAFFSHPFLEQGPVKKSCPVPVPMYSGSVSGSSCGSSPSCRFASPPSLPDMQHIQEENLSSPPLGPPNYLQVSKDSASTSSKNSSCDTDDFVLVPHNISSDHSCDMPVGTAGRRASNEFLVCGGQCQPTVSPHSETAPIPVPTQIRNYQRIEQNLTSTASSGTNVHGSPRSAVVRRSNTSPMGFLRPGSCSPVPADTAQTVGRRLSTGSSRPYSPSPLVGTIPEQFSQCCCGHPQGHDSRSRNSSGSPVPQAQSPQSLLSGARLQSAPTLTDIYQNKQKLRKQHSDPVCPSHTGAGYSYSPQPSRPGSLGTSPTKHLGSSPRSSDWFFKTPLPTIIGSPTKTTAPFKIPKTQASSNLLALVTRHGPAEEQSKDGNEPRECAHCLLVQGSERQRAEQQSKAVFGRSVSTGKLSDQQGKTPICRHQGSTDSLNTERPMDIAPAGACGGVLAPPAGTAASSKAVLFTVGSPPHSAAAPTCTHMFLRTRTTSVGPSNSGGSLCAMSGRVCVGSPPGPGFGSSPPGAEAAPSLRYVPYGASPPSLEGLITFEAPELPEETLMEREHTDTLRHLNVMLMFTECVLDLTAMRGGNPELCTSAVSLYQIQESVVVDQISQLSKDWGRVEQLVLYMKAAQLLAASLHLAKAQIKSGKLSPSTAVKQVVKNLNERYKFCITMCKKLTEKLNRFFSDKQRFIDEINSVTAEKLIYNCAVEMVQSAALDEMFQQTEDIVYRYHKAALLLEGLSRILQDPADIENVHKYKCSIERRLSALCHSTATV
Text: as §1

363 human kinases (including Aurora A/B/C) (Homo sapiens, UniProt P41240), sequence (P41240 whole entry): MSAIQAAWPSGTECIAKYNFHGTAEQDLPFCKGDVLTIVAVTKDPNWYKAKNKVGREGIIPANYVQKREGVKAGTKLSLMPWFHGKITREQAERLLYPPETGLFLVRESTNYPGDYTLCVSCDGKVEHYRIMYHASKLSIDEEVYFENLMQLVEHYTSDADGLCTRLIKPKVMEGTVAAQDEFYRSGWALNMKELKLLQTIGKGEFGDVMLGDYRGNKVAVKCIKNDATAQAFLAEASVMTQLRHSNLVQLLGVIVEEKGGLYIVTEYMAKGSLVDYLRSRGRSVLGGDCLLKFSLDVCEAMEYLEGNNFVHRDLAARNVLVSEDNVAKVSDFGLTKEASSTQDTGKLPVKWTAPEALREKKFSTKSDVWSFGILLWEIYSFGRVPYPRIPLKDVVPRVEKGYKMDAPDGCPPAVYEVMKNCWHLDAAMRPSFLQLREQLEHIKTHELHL

| Compound | remaining activity at 0.1 µM [1] [%] | remaining activity at 0.1 µM [2] [%] | remaining activity at 0.1 µM [3] [%] | remaining activity at 0.1 µM [4] [%] | remaining activity at 0.5 µM ([1]; 500 nM) [%] | remaining activity at 0.5 µM ([2]; 500 nM) [%] | remaining activity at 0.5 µM ([3]; 500 nM) [%] | remaining activity at 0.5 µM ([4]; 500 nM) [%] | % Enzyme Activity (relative to DMSO controls) ([1]; 500 nM) [%] | % Enzyme Activity (relative to DMSO controls) ([2]; 500 nM) [%] | % Enzyme Activity (relative to DMSO controls) ([3]; 500 nM) [%] | % Enzyme Activity (relative to DMSO controls) ([4]; 500 nM) [%] |
| --- | --- | --- | --- | --- | --- | --- | --- | --- | --- | --- | --- | --- |
| CCn1cc(-c2ccnc3[nH]c(-c4cccc(CN(C)C)c4)cc23)c(-c2ccc(NC(=O)N(C)C)cc2)n1 [GSK1070916] | 76.8 | 99.8 | 85.1 | 141 | – | – | – | – | – | – | – | – |
| O=C(O)[C@]1(Cc2cccc(Nc3nccs3)n2)CC[C@@H](Oc2cccc(Cl)c2F)CC1 [MK-5108] | 97.1 | 93.9 | 47.6 | 113 | 87.9 | 67.9 | 19.1 | 134 | – | – | – | – |
| O=C(c1cccc(Cl)c1F)N1CCN(Cc2cccc(Nc3nccs3)n2)CC1 [MK-8745] | – | – | – | – | 79 | 95.8 | 58.3 | 144 | 75.68 | 94.61 | 58.24 | 140.35 |
